This is an account of results in patent US5169863A, “Hypersphyxia-causing methods” (K.K. Ueno Seiyaku Oyo Kenkyujo, priority 1988, dated 1992).

The nature of test [1]: progressing a breath (change rate of breath rate). Format: in vivo, Wister male rats. Particulars: Rattus norvegicus, iv, tail vein, rats. As for the experimental part: Wister male rats (8 weeks old) were applied to anesthesia by intraperitoneal administration with 1.25 g/kg of urethane. A pick-up for breath was fixed on a top of a rat's nose, and the breath curve was recorded on a polygraph while the breath rate was counted with a tachometer.
Each test compound was dissolved in ethanol and administered to rats through a tale vein in 1 mg/kg as diluted with Ringer's solution just before use. The maximum concentration of ethanol was 2 percent. Ringers solution containing ethanol but not containing test compound was administered at every experiment as a control. The change rates (%) of the breath rate before and after administration were determined, and evaluated as progressing activity of breath.

A short description of test [2]: changing rate of blood pressure and heart rate by intravenous injection in anesthetized rats. It is filed as in vivo, Wister male rats. Particulars: for change in vivo at 1 mg/kg: Rattus norvegicus; for blood pressure effect (in words): Example 1 conclusion. How it is done: (blood pressure, heart rate increasing action by intravenous injection) Wister male rats (8 weeks old) were used as test animals. The rats were applied to anesthesia by intraperitoneal administration with 1.25 g/kg of urethane. The blood pressure was determined by inserting a polyethylene tube into a femoral artery, which was connected with a pressure transducer. The heart rate was determined from R wave of electrocardiograms (ECG) induced by standard limb lead II with a tachometer. Each test compound was dissolved in ethanol and intravenously administered to rats in 1 mg/kg diluted with Ringer's solution just before use. The maximum concentration of ethanol was 2 percent. An ethanol-containing Ringer without any test compound was used as a control to confirm the influence of the ethanol in each experiment. Each changing rate (%) in the blood pressure and heart rate before and after administration was determined, and the average of 3-4 experiments was shown in Table 1. Changing rates of blood pressure and heart rate were determined in the same manner as described in Example 1 except that the test compounds 60, 61 and 62 were used in different concentrations instead of the test compounds 1-55.

Where [3] appears, read: Table 1, read-out: changing rate of blood pressure.
Setting [4] is: Table 1, read-out: changing rate of heart rate.

As to `CCCCCC(=O)CC[C@H]1[C@H](O)CC(=O)[C@@H]1C/C=C\CC(C)CC(=O)OC` (some centres unmarked) [Compound 28, 13,14-dihydro-15-keto-3R,S-methyl-PGE2 methyl ester], the change in vivo at 1 mg/kg in test [1] turned out to be 40%; in test [2] (setting [3]), 12%; in test [2] (setting [4]), 33%.
Consider `CCCCC(C)C(=O)CC[C@H]1[C@H](O)CC(=O)[C@@H]1C/C=C\CCCC(=O)OCC` (some centres unmarked) [Compound 31, 13,14-dihydro-15-keto-16R,S-methyl-PGE2 ethyl ester], for which the change in vivo at 1 mg/kg in test [1] is 40%; in test [2] (setting [3]), 14%; in test [2] (setting [4]) it was 46%.
`CCCCCC(=O)CC[C@H]1[C@H](O)CC(=O)[C@@H]1C/C=C\CCCC(=O)OCCC` [Compound 23, 13,14-dihydro-15-keto-PGE2 n-propyl ester]: the values for the change in vivo at 1 mg/kg in test [1], in test [2] (setting [3]) and in test [2] (setting [4]) were 37%, 5% and 4%, respectively.
For `COCCCCCC(=O)CC[C@H]1[C@H](O)CC(=O)[C@@H]1C/C=C\CCCC(=O)OC` [Compound 45, 13,14-dihydro-15-keto-20-methoxy-PGE2 methyl ester] the same measures were 10%, 2% and 4%.
Consider `CCCCC(O)C(=O)CC[C@H]1[C@H](O)CC(=O)[C@@H]1C/C=C\CCCC(=O)OCC` (some centres unmarked) [Compound 35, 13,14-dihydro-15-keto-16R,S-hydroxy-PGE2 ethyl ester], for which the results for the change in vivo at 1 mg/kg in test [1], in test [2] (setting [3]) and in test [2] (setting [4]) were 37%, 17% and 27%, respectively.
As to `CCCCCC(=O)CC[C@H]1[C@H](O)CC(=O)[C@@H]1C/C=C\CCCC(=O)OCCCC` [Compound 24, 13,14-dihydro-15-keto-PGE2 n-butyl ester], the change in vivo at 1 mg/kg in test [1] is 41%; in test [2] (setting [3]), 5%; in test [2] (setting [4]), 5%.
With `CCCCCC(=O)CC[C@H]1[C@H](O)CC(=O)[C@@H]1CC(=O)CCCCC(=O)OC` [Compound 6, 13,14-dihydro-6,15-diketo-PGE1 methyl ester], the change in vivo at 1 mg/kg in test [1] is 21%; in test [2] (setting [3]), 3%; in test [2] (setting [4]), 9%.
For `CCCCCC(=O)CC[C@H]1[C@H](O)CC(=O)[C@@H]1C/C=C\CCCC(=O)O` [Compound 20, 13,14-dihydro-15-keto-PGE2, reference compound], the results for the change in vivo at 1 mg/kg in test [1], in test [2] (setting [3]) and in test [2] (setting [4]) were 12%, -15% and 0%, respectively. In addition, the “blood pressure effect (in words)” value in test [2] was “blood pressure decreasing effect”.
With `CCCCC(C)(C)C(=O)CC[C@H]1[C@H](O)CC(=O)[C@@H]1C/C=C\CCCC(=O)OC` [Compound 33, 13,14-dihydro-15-keto-16,16-dimethyl-PGE2 methyl ester], the change in vivo at 1 mg/kg in test [1] came out at 40%; in test [2] (setting [3]), 20%; in test [2] (setting [4]), 28%.
Take `COC(=O)CCC/C=C\C[C@H]1C(=O)C[C@@H](O)[C@@H]1CCC(=O)CCCC(C)C` [Compound 43, 13,14-dihydro-15-keto-19-methyl-PGE2 methyl ester]: the change in vivo at 1 mg/kg in test [1] is 41%; in test [2] (setting [3]), 14%; in test [2] (setting [4]) it was 45%.
For `CCC[C@H](C)CC(=O)CC[C@H]1[C@H](O)CC(=O)[C@@H]1C/C=C\CCCC(=O)OC` [Compound 42, 13,14-dihydro-15-keto-17S-methyl-PGE2 methyl ester] the same measures were 28%, 12% and 7%.
Consider `CCCCCC(=O)CC[C@H]1[C@H](O)CC(=O)[C@@H]1C/C=C\CC(C)CC(=O)OCC` (some centres unmarked) [Compound 29, 13,14-dihydro-15-keto-3R,S-methyl-PGE2 ethyl ester], for which the values for the change in vivo at 1 mg/kg in test [1], in test [2] (setting [3]) and in test [2] (setting [4]) were 11%, 7% and 17%, respectively.
Turning to `COC(=O)CCCCC(=O)C[C@H]1C(=O)C[C@@H](O)[C@@H]1CCC(=O)CCCC(C)C` [Compound 14, 13,14-dihydro-6,15-diketo-19-methyl-PGE1 methyl ester], the change in vivo at 1 mg/kg in test [1] came to 33%; in test [2] (setting [3]), 12%; in test [2] (setting [4]), 22%.
For `CC(C)=CCCCCC(=O)CC[C@H]1[C@H](O)CC(=O)[C@@H]1C/C=C\CCCC(=O)O` [Compound 49, 13,14-dihydro-15-keto-20-isopropylidene-PGE2] the same measures were 18%, 2% and 3%.
Take `CCCCC(F)C(=O)CC[C@H]1[C@H](C)CC(=O)[C@@H]1C/C=C\CCCC(=O)OCC` (stereo partly drawn) [Compound 40, 13,14-dihydro-15-keto-16R,S-fluoro-11-dehydroxy-11R-methyl-PGE2 ethyl ester]: the change in vivo at 1 mg/kg in test [1] came out at 16%; in test [2] (setting [3]), 17%; in test [2] (setting [4]), 27%.
For `CCCCC(C)(C)C(=O)CC[C@H]1[C@H](O)CC(=O)[C@@H]1C/C=C\CCCC(=O)OCC` [Compound 34, 13,14-dihydro-15-keto-16,16-dimethyl-PGE2 ethyl ester] the same measures were 31%, 6% and 29%.
As to `CCCCC(C)(C)C(=O)CC[C@H]1[C@H](O)CC(=O)[C@@H]1CC(=O)CCCCC(=O)OCC` [Compound 12, 13,14-dihydro-6,15-diketo-16,16-dimethyl-PGE1 ethyl ester], the change in vivo at 1 mg/kg in test [1] worked out at 44%; in test [2] (setting [3]) it was 17%; in test [2] (setting [4]) it was 38%.
Taken in the same sequence, the figures for `CCCCCC(=O)CC[C@H]1[C@H](O)CC(=O)[C@@H]1C/C=C\CCCC(=O)OCc1ccccc1` [Compound 25, 13,14-dihydro-15-keto-PGE2 benzyl ester] were 22%, 2% and 5%.
Turning to `CCCCC(F)C(=O)CC[C@H]1[C@H](O)CC(=O)[C@@H]1CC(=O)CCCCC(=O)OCC` (some centres unmarked) [Compound 13, 13,14-dihydro-6,15-diketo-16R,S-fluoro-PGE1 ethyl ester], the change in vivo at 1 mg/kg was 53% in test [1], 11% in test [2] (setting [3]) and 20% in test [2] (setting [4]).
Regarding `COC(=O)CCC/C=C\C[C@H]1C(=O)C[C@@H](O)[C@@H]1CCC(=O)CCCCC=C(C)C` [Compound 50, 13,14-dihydro-15-keto-20-isopropylidene-PGE2 methyl ester], the change in vivo at 1 mg/kg in test [1] was 18%; in test [2] (setting [3]), 2%; in test [2] (setting [4]), 5%.
For the molecule `COCCCCCC(=O)CC[C@H]1[C@H](O)CC(=O)[C@@H]1C/C=C\CC(C)CC(=O)OC` (some centres unmarked) [Compound 47, 13,14-dihydro-15-keto-3R,S-methyl-20-methoxy-PGE2 methyl ester], the change in vivo at 1 mg/kg in test [1] turned out to be 17%; in test [2] (setting [3]), 1%; in test [2] (setting [4]) it was 4%.
In the case of `CCCCCC(=O)CC[C@H]1[C@H](C)CC(=O)[C@@H]1C/C=C\CCCC(=O)OCC` [Compound 41, 13,14-dihydro-15-keto-11-dehydroxy-11R-methylPGE2 ethyl ester], the values for the change in vivo at 1 mg/kg in test [1], in test [2] (setting [3]) and in test [2] (setting [4]) were 20%, 11% and 26%, respectively.
For `CCCCCC(=O)CC[C@H]1[C@H](O)CC(=O)[C@@H]1C/C=C\CC=CC(=O)OC` [Compound 27, 13,14-dihydro-15-keto-Δ^2 -PGE2-methyl ester] the same measures were 11%, 6% and 21%.
On to `CCCCCCCC(=O)CC[C@H]1[C@H](O)CC(=O)[C@@H]1C/C=C\CCCC(=O)OC` [Compound 51, 13,14-dihydro-15-keto-20-ethyl-PGE2 methyl ester], for which the change in vivo at 1 mg/kg in test [1] is 49%; in test [2] (setting [3]), 1%; in test [2] (setting [4]) it was 14%.
For `CCOC(=O)CCC/C=C\C[C@H]1C(=O)C[C@@H](O)[C@@H]1CCC(=O)CCCC(C)C` [Compound 44, 13,14-dihydro-15-keto-19-methyl-PGE2 ethyl ester], the results for the change in vivo at 1 mg/kg in test [1], in test [2] (setting [3]) and in test [2] (setting [4]) were 16%, 20% and 30%, respectively.
Turning to `CCCCC[C@H](O)/C=C/[C@H]1[C@H](O)CC(=O)[C@@H]1C/C=C\CCCC(=O)OC` [Compound 58, PGE2 methyl ester, reference compound], the change in vivo at 1 mg/kg was 35% in test [1], -11% in test [2] (setting [3]) and 33% in test [2] (setting [4]). For the same molecule, the “blood pressure effect (in words)” value in test [2] is given as “blood pressure decreasing effect”.
